This is an account of results in publication PMC12814486 (Bioorganic & medicinal chemistry, 2025).

For one data set, the target named is T1, mouse sEH (Mus musculus, UniProt P34914).
T1 sequence (P34914 1-554): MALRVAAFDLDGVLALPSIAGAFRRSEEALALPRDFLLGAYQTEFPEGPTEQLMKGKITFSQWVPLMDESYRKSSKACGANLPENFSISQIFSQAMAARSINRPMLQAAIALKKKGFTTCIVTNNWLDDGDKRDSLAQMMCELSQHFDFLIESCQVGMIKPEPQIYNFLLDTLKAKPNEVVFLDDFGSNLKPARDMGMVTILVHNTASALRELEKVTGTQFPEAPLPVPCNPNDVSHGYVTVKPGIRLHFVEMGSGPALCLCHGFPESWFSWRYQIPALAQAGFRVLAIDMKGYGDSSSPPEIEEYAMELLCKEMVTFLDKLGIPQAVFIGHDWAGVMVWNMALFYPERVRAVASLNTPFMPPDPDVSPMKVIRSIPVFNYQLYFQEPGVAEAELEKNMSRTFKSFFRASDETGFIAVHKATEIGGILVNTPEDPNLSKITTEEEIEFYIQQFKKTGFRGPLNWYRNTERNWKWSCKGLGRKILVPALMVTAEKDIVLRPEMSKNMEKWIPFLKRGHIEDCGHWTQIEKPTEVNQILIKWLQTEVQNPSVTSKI
Put plainly: sEH inhibition assay. The format is biochemical.

The target in another data set is T2, human FAAH (Homo sapiens, UniProt O00519).
T2 sequence (O00519 1-579): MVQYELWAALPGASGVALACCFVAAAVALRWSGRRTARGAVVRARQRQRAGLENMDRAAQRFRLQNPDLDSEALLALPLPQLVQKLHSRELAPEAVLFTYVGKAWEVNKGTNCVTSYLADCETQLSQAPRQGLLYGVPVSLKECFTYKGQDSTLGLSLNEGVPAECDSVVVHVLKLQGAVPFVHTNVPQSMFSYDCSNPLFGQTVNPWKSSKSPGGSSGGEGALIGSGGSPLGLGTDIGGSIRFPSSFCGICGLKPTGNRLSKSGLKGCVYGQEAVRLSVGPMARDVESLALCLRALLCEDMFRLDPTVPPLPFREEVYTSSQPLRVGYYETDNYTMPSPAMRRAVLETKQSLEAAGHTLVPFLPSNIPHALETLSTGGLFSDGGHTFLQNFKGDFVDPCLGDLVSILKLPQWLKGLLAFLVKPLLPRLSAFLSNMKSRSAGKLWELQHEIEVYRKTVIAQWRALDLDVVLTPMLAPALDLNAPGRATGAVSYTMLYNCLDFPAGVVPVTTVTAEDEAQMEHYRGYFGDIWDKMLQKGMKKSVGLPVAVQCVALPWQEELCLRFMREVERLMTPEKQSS
Put plainly: FAAH inhibition assay. The format is biochemical.

The nature of the next data set: Solubility assay. The format is physicochemical. Particulars: sodium phosphate buffer, pH 7.4, aqueous buffer, kinetic from dmso stock.
A further data set has as its target T3, rat sEH (Rattus norvegicus, UniProt P80299).
T3 sequence (P80299 1-554): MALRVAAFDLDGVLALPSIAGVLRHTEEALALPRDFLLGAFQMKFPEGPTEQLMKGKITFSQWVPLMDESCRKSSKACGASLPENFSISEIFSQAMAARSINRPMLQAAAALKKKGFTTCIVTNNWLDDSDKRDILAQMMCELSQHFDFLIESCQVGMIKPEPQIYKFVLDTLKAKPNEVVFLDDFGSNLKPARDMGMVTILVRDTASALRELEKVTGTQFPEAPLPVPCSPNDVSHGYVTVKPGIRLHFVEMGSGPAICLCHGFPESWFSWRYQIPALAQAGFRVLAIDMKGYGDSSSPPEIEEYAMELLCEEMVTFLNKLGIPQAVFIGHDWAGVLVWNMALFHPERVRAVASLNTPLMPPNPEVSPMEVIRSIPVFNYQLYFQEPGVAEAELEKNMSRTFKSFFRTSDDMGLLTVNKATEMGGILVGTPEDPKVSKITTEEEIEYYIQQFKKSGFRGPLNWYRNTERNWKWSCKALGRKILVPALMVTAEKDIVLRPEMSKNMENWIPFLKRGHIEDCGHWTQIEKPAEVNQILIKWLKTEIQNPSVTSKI
Nature of the data set: sEH inhibition assay. The class given is biochemical.

Another data set concerns the target T4, human sEH (Homo sapiens, UniProt P34913).
T4 sequence (P34913 1-555): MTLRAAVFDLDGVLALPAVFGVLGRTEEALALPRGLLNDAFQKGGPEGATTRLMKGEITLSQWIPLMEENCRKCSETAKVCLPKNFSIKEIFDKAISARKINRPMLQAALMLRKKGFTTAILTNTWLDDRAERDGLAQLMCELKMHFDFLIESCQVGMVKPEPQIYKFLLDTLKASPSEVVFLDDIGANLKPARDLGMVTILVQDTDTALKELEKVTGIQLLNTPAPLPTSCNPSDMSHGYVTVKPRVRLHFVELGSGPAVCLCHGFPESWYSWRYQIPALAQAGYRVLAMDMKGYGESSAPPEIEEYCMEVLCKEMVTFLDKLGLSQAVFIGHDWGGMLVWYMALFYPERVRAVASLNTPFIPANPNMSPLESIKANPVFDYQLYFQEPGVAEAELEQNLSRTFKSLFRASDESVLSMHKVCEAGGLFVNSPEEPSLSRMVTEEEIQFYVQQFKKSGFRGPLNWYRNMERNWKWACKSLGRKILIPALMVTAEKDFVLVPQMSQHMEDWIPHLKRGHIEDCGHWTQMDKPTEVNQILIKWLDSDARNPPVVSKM
Nature of the data set: sEH inhibition assay. The class given is biochemical.

A further data set concerns male Sprague-Dawley rats. Put plainly: Home cage wheel running. The settings on record: 3 mg/kg intraperitoneal, vs vehicle, n = 8/group. The class given is in vivo, rat.
Another data set deals with T5, microsomal EH (Homo sapiens, UniProt P07099).
T5 sequence (P07099 1-455): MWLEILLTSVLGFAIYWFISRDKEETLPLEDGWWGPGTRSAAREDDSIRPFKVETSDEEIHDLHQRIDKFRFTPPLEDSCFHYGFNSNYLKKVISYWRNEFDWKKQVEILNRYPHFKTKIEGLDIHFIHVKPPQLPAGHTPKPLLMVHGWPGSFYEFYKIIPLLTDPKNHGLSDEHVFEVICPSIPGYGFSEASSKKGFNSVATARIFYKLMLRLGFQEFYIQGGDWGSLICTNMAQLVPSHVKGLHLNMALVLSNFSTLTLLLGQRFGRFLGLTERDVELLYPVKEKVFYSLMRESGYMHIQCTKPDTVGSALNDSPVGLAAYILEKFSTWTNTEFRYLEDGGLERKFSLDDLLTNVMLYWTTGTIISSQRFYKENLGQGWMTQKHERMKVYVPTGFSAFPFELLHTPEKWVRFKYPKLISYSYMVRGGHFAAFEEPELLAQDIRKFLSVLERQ
Put plainly: Microsomal EH inhibition. The class given is biochemical. The settings on record: see Supplemental Data.

The target in another data set is T6, EH3 (Homo sapiens, UniProt Q9H6B9).
T6 sequence (Q9H6B9 1-360): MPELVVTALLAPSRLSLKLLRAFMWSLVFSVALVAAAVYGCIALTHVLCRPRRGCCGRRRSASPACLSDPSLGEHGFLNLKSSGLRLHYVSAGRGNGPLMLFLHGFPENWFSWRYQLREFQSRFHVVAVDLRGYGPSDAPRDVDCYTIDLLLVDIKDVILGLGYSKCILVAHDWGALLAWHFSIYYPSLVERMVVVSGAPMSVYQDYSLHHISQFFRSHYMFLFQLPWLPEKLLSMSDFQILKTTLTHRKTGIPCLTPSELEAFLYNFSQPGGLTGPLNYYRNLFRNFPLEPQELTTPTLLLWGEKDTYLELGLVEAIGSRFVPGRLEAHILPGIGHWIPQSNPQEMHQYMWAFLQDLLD
Put plainly: EH3 inhibition. The class given is biochemical. The settings on record: see Supplemental Data.

≈ marks a conversion by molar mass, not a printed value.

In general, IC50 refers to the midpoint of a concentration-inhibition curve. Low values mean inhibition by little substance, high ones a need for much substance. What is called solubility is the dissolved amount per volume that the medium holds. Higher therefore signals much dissolved substance. For the molecule `O=C(Nc1ccc(-c2ncccn2)cc1)C1CCN(S(=O)(=O)c2ccccc2Cl)CC1` [Compound 4a, 1-((2-chlorophenyl)sulfonyl)-N-(4-(pyrimidin-2-yl)phenyl)piperidine-4-carboxamide], the IC50 came out at 342 nM against mouse sEH, 175 nM on human FAAH, 18.1 nM against rat sEH and 19.7 nM against human sEH. The solubility in the data set “Solubility assay” is > 63 µM.
The like results for `O=C(Nc1ccc(-c2cnc(Cl)nc2)cc1)C1CCN(S(=O)(=O)c2ccccc2Cl)CC1` [Compound 4h, 1-((2-chlorophenyl)sulfonyl)-N-(4-(2-chloropyrimidin-5-yl)phenyl)piperidine-4-carboxamide] were, in that order, 510 nM, 258 nM, 71.5 nM, 32.6 nM and 31 to 63 µM (≈ 15.2 to 31 µg/mL).
`CN1CC[C@]23c4c5ccc(O)c4O[C@H]2[C@@H](O)C=C[C@H]3[C@H]1C5` [morphine, reference compound]: the “wheel revolutions in the 15 min after drug injection” value with male Sprague-Dawley rats is “significantly lower”.
`COc1cn2c(-c3ccc(NC(=O)C4CCN(S(=O)(=O)c5ccccc5Cl)CC4)cc3)nnc2c(OC)n1` [Compound 4r, 1-((2-chlorophenyl)sulfonyl)-N-(4-(6,8-dimethoxy-[1,2,4]triazolo[4,3-a]pyrazin-3-yl)phenyl)piperidine-4-carboxamide]: the half-maximal inhibitory concentration (IC50) was 9 nM on mouse sEH, > 10000 nM on human FAAH, 21.8 nM on rat sEH and 19.4 nM at human sEH. Also, the “inhibition of microsomal EH” value on microsomal EH is “does not inhibit”. Also, the “inhibition of EH3” value on EH3 is given as “does not inhibit”. Moreover, in the data set “Solubility assay”, the solubility lay within 31 to 63 µM (≈ 17.3 to 35.1 µg/mL).
